Assay results as given in publication PMC11931052, “Efficacy of dispirotripiperazine PDSTP in a golden Syrian hamster model of SARS-CoV-2 infection” (Frontiers in Microbiology, 2025).

Experiments:
HCoV-OC43 = experiment: MTT test, HCoV-OC43 in Vero-76 cells; format: cell-based; details: Betacoronavirus 1, OC43, Vero 76, read-out: IC50 (HCoV-OC43)
[1] = tested on: SARS-CoV-2 clinical isolate 35245; experiment: Microtetrazolium (MTT) test, SARS-CoV-2 35245; format: cell-based; details: Severe acute respiratory syndrome coronavirus 2, read-out: Antiviral activity IC50 against coronaviruses, SARS-CoV-2 clinical isolate 35245, MTT
Protocol: The compound’s activity against OC43 and SARS-CoV-235245 was based on the inhibition of virus-induced cytopathogenicity in acutely infected Vero-76 cells (MOI 0.01). Briefly, Vero-76 cells were seeded in 96-well plates at a density of 3 × 10^4 cells/well and incubated in a growth medium in a 5% CO2 at 37°C overnight. Cell monolayers were then infected with 50 μL of the appropriate viral dilution in maintenance medium [D-MEM and MEM-Earl (Gibco, Thermo Fisher Scientific, MA United States) with L-glutamine (Gibco), 1 mM sodium pyruvate (Gibco), and 0.025 g/L kanamycin (Gibco), supplemented with 0.5% inactivated FBS (Harlan Sera-Lab, Loughborough, United Kingdom), respectively] to give an MOI of 0.01, without or with serial dilutions of test samples. After 6 (HCoV-OC43) and 4/5 (SARS-CoV-2) days of incubation at 37°C, the extent of cell viability was quantified using a tetrazolium-based colorimetric method, in which the reduction of 3-(4,5-dimethylthiazol-2-yl)-2,5-diphenyl-tetrazolium bromide (MTT) by mitochondrial dehydrogenases to a soluble colored formazan was measured using a spectrophotometer (Infinity 200, Tecan Austria GmbH, Austria) at 570 nm, as previously reported ([Sanna et al., 2020]).

HCoV-229E = experiment: Plaque reduction assay, HCoV-229E in Vero E6 cells; format: cell-based; details: Human coronavirus 229E, Vero C1008, Vero E6, mean ± SD, read-out: Antiviral activity IC50 against coronaviruses, HCoV-229E, PR
Protocol: (§1) Vero E6 cells were incubated in the presence of PDSTP and reference compounds (100.0, 20.0, 4.0, and 0.8 μM concentrations) for 1 h at 37°C in a 5% CO2 and then infected for 1 h with 250 μL of the corresponding virus (SARS-CoV-2 PV10734 or HCoV-229E) dilutions to obtain 50–100 PFU/well. The plates were then incubated for 1 h at 37°C in a 5% CO2 atmosphere. Following the removal of the unabsorbed virus, 400 μL of the medium (D-MEM with L-glutamine, 4,500 mg/L D-glucose, and 1% inactivated FBS) containing 0.75% methyl-cellulose (M0512, viscosity 4,000 cP, Sigma-Aldrich, United States) and the serial dilutions of the compounds were added and incubated for 4 (SARS-CoV-2) or 2 (HCoV-229E) days at 37°C in a 5% CO2 atmosphere. Subsequently, the cells were fixed and stained with a 0.2% crystal violet solution (V5265, Sigma-Aldrich, United States) and then the number of plaques was calculated. The degree of cell growth/viability and viral multiplication at each drug concentration tested was expressed as a percentage of the untreated control. Concentrations resulting in 50% inhibition (CC50 or EC50) were determined using linear regression analysis.

[2] = Cytotoxicity (MTT test) in Vero-76 cells; format: cell-based, African Green Monkey (Cercopithecus aethiops); details: African green monkey
Protocol: (§2) The microtetrazolium test (MTT test) was used to study the cytotoxicity of the compounds. Vero cells were seeded in 96-well plates at an initial density of 3×10^5 cells/mL, in Gibco Dulbecco’s Modified Eagle Medium supplemented with L-glutamine and 25 mg/L kanamycin, and 10 % fetal bovine serum (FBS) (DMEM, Thermo Fisher Scientific, Waltham, MA USA). Cell cultures were then incubated at 37 °C in a 5 % CO2 atmosphere, in the absence or presence of serial dilutions of test compounds. The test medium used for the cytotoxic assay as well as for the antiviral assay contained 1 % of the appropriate serum. Cell viability was determined after 72 h at 37 °C by the MTT method as previously reported. The cell viability was expressed as a percentage of the control. The 50% cytotoxic concentration (CC50) of each compound was defined as the concentration of the compound that reduced the absorbance (OD570) of the treated cells to 50% when compared with that of untreated cells. CC50 mean values were calculated from at least three independent experiments.

[3] = Cytotoxicity (MTT test) in Vero E6 cell line; format: cell-based, African Green Monkey (Cercopithecus aethiops); details: African green monkey, mean ± SD, three independent experiments
Protocol: as §2

[4] = tested on: SARS-CoV-2 clinical isolate VR PV10734; experiment: Plaque reduction assay, SARS-CoV-2 VR PV10734 in Vero E6 cells; format: cell-based; details: Severe acute respiratory syndrome coronavirus 2, Vero C1008, mean ± SD, read-out: Antiviral activity IC50 against coronaviruses, SARS-CoV-2 clinical isolate VR PV10734, PR
Protocol: as §1

[5] = tested on: SARS-CoV-2 clinical isolate 35245; experiment: Plaque reduction assay, SARS-CoV-2 35245; format: cell-based; details: Severe acute respiratory syndrome coronavirus 2, read-out: Antiviral activity IC50 against coronaviruses, SARS-CoV-2 clinical isolate 35245, PR
SARS-COV-2 PV10734 = experiment: Time-of-addition and cell pre-treatment assay in Vero cells; format: cell-based

Compound: CCN(CCO)CCCC(C)Nc1ccnc2cc(Cl)ccc12 (centres unmarked) [HDQ, Hydroxychloroquine, reference compound]
- IC50 (HCoV-OC43): 9.8 ± 1.7 µM
- IC50 [1]: 11 ± 2.9 µM
- IC50 (HCoV-229E): 1.6 ± 0.5 µM
- CC50 at 72 h ([2]; Vero-76 cells): 40 ± 5 µM
- CC50 at 72 h ([3]; Vero E6 cells): 40 ± 5 µM
- IC50 [4]: 2400 ± 700 nM
- IC50 [5]: 2300 ± 700 nM

Compound: CCC(CC)COC(=O)[C@H](C)N[P@](=O)(OC[C@H]1O[C@@](C#N)(c2ccc3c(N)ncnn23)[C@H](O)[C@@H]1O)Oc1ccccc1 [RMD, Remdesivir]
- Antiviral activity after the SARS-CoV-2 entry process (SARS-COV-2 PV10734): exerted its antiviral activity
- Antiviral activity, pre-treatment and early stages of infection (SARS-COV-2 PV10734): did not affect the early events of the viral life cycle
- IC50 (HCoV-229E): 6 ± 2 µM
- CC50 at 72 h [2]: > 100 µM
- CC50 at 72 h [3]: > 100 µM
- IC50 [4]: 1600 ± 300 nM

Compound: heparin
- Inhibitory effect at the later stages of infection (SARS-COV-2 PV10734; addition at 4 and 6 hpi): barely noticeable
